Laboratory results: US11696914B1 (priority 2019, dated 2023)
Like-named read-outs stand apart in the source and are kept apart here.

Key:
[1] = mouse, microsomes
[2] = human, microsomes, 1 h
[3] = human, microsomes
[4] = microsomes
[5] = guinea pig, pH 7.4
[6] = guinea pig, microsomes
[7] = mouse, microsomes, 1 h, pH 7.4
Sudan virus = conditions: guinea pig, in vivo; cited from earlier work
in vitro [8] = conditions: microsomes
SARS-CoV-2 = test: microbe, parasite or virus in culture; type: cell-based; conditions: Severe acute respiratory syndrome coronavirus 2, A549-ACE2, read-out: IC50 against SARS-CoV-2
in vitro [9] = conditions: human, microsomes
in vitro [10] = conditions: guinea pig, microsomes
in vitro [11] = conditions: mouse, microsomes
EBOV = conditions: human, in vivo; cited from earlier work

Molecule: CCN(CC)CCCC(C)Nc1ccnc2cc(Cl)ccc12 (stereo not shown) [Chloroquine]
- Clint [1]: 29.3
- Dextromethorphan: compound, t1/2 normalized to dextromethorphan control [1]: 2.7
- t1/2 [1]: 47.3 min
- Relative Peak Area/Abundance HLM ([2]; pH 7.4): 56.7%
- Clint [3]: 6.9
- Dextromethorphan: compound, t1/2 normalized to dextromethorphan control [3]: 10.3
- t1/2 [3]: 201.4 min
- Clint [4]: 13.0
- Dextromethorphan: compound, t1/2 normalized to dextromethorphan control [4]: 19.1
- t1/2 ([4]; monkey): 106.8 min
- Relative Peak Area/Abundance GPLM [5]: 43.3%
- Clint [6]: 10.5
- Dextromethorphan: compound, t1/2 normalized to dextromethorphan control [6]: 42.1
- t1/2 [6]: 132.6 min
- Relative Peak Area/Abundance MLM [7]: 42.5%

Molecule: NC(=O)c1nc(F)c[nH]c1=O [Favipiravir]
- survival rates in Sudan virus-infected guinea pigs (Sudan virus): 83-100%

Molecule: C[C@H]1[C@H](OC(=O)CCC(=O)O)O[C@@H]2O[C@@]3(C)CC[C@H]4[C@H](C)CC[C@@H]1[C@@]24OO3 [Artesunate]
- effect on toxicity of pyronaridine in the checkboard assay (HeLa cells): ameliorates the toxicity of pyronaridine

Molecule: O=C(O)Cc1ccccc1Nc1c(Cl)cccc1Cl [Diclofenac]
- t1/2 of CYP probe controls [1]: 39.6 min
- half-life (in vitro [8]; monkey): 43.1 min

Molecule: CCC(CC)COC(=O)[C@H](C)N[P@](=O)(OC[C@H]1O[C@@](C#N)(c2ccc3c(N)ncnn23)[C@H](O)[C@@H]1O)Oc1ccccc1 [Remdesivir]
- IC50 (SARS-CoV-2): ~147 nM

Molecule: COc1ccc2[nH]c([S+]([O-])Cc3ncc(C)c(OC)c3C)nc2c1 (stereo not shown) [Omeprazole]
- half-life (in vitro [9]; t1/2 of CYP probe controls): 23.5 min
- half-life (in vitro [8]; monkey): 25.5 min
- half-life (in vitro [10]; t1/2 of CYP probe controls): 34 min

Molecule: Cc1ncc2n1-c1ccc(Cl)cc1C(c1ccccc1F)=NC2 [Midazolam]
- half-life (in vitro [9]; t1/2 of CYP probe controls): 2.35 min
- half-life (in vitro [8]; monkey): 4.3 min
- half-life (in vitro [11]; t1/2 of CYP probe controls): 1.68 min
- half-life (in vitro [10]; t1/2 of CYP probe controls): 3.75 min

Molecule: COc1ccc2c(c1)[C@]13CCCC[C@@H]1[C@H](C2)N(C)CC3 [Dextromethorphan]
- half-life (in vitro [9]; Dextromethorphan t1/2): 19.7 min
- half-life (in vitro [9]; t1/2 of CYP probe controls): 14.8 min
- half-life (in vitro [8]; monkey): 6.69 min
- half-life (in vitro [8]; non-human primate): 5.7 min
- half-life (in vitro [11]; Dextromethorphan t1/2): 16.2 min
- half-life (in vitro [11]; t1/2 of CYP probe controls): 13.2 min
- half-life (in vitro [10]; Dextromethorphan t1/2): 3.2 min
- half-life (in vitro [10]; t1/2 of CYP probe controls): 2.9 min

Molecule: COc1ccc2nc3cc(Cl)ccc3c(N)c2n1 [M11]
- Relative Peak Area/Abundance HLM [2]: 0.2%

B1: mAb114 (antibody, chains of the INN, looked up, V domains shown)
VH: EVQLVESGGGLIQPGGSLRLSCAASGFALRMYDMHWVRQTIDKRLEWVSAVGPSGDTTYADSVKGRFAVSRENAKNSLSLQMNSLTAGDTAIYYCVRSDRGVAGLFDSWGQGILVTVSS
VL: DIQMTQSPSSLSASVGDRITITCRASQAFDNYVAWYQQRPGKVPKLLISAASALHAGVPSRFSGSGSGTHFTLTISSLQPEDVATYYCQNYNSAPLTFGGGTKVEIK
- overall survival rate in EBOV patients (EBOV): 66%
